Laboratory results as given in PMC8192493 (Journal of medicinal chemistry, 2021).
≈ marks a conversion by molar mass, not a printed value. Entries after “also recorded” stand apart in the source; their conditions may differ.

Tests used:
[1] = test system: six MRSA clinical isolates; assay: MIC assays against MRSA clinical isolates; assay type: cell-based; details: Staphylococcus aureus, read-out: MIC against six MRSA clinical isolates
[2] = test system: J774 macrophages; assay: Alamar Blue cytotoxicity, J774 macrophages; assay type: cell-based; details: IC50 J774 MΦ and HepG2 vs MIC against MRSA, MRSE, VRE strains
[3] = test system: MRSA, MRSE, and VRE strains; assay: MIC summarised across several Gram-positive strains
[4] = test system: iron uptake genes isdB, sfaA, sbnC, MW0695 in MRSA-1707 biofilms; assay: RT-qPCR of iron uptake genes in MRSA biofilms; details: established biofilms, 4 h, 1 μM or 1/10 × MBEC
[5] = test system: iron uptake genes isdB, sfaA, sbnC, MW0695 in MRSA-1707 biofilms; details: 5 μM; previous work ref 39; cited from earlier work
[6] = test system: VRE 700221 (E. faecium ATCC 700221); assay: MIC broth microdilution, VRE 700221; details: 16 h
[7] = test system: MRSE 35984 biofilms; assay: Calgary biofilm device; details: Staphylococcus epidermidis, read-out: MRSE 35984 MBC
[8] = test system: M. tuberculosis H37Ra (ATCC 25177); assay: MIC assay for Mtb H37Ra; assay type: cell-based; details: Mycobacterium tuberculosis, ATCC25177|H37RA, 168 h, read-out: MIC Mtb H37Ra

Question: What does the source list for `Cc1cccc2nc3c(O)c(Br)c(Cl)c(Br)c3nc12` [HP 29, 2,4-Dibromo-3-chloro-6-methylphenazin-1-ol]?
Answer: MIC [1]: 0.06 to 0.12 µM (≈ 0.0241 to 0.0483 µg/mL); selectivity index (SI) [2]: > 2000; MICs against all Gram-positive strains in the panel [3]: submicromolar; induction of iron starvation (upregulation of iron uptake genes) [4]: induce rapid iron starvation; also recorded: rapidly induce iron starvation

Question: With `c1ccc(CN(CCN(Cc2ccccn2)Cc2ccccn2)Cc2ccccn2)nc1` [TPEN, N,N,N′,N′-tetrakis(2-pyridinylmethyl)-1,2-ethanediamine] as the compound, how does the “upregulation of iron uptake genes” value [5] read?
Answer: do not upregulate

Question: For `CCSc1c(Br)c(O)c2nc3cccc(C)c3nc2c1Br` [HP 45, 2,4-Dibromo-3-(ethylthio)-6-methylphenazin-1-ol], which MIC [1] is on record?
Answer: 0.31 to 0.63 µM (≈ 0.133 to 0.27 µg/mL)

Question: For `Oc1c(Br)cc(Br)c2nc3ccccc3nc12` [HP 3], which MIC [1] is on record?
Answer: 1.25 to 2.5 µM (≈ 0.443 to 0.885 µg/mL)

Question: Which “MIC VRE 700221” value ([6]; BHI, 37 °C, d lowest test concentration) does the source give for `CN[C@H](CC(C)C)C(=O)N[C@H]1C(=O)N[C@@H](CC(N)=O)C(=O)N[C@H]2C(=O)N[C@H]3C(=O)N[C@H](C(=O)N[C@H](C(=O)O)c4cc(O)cc(O)c4-c4cc3ccc4O)[C@H](O)c3ccc(c(Cl)c3)Oc3cc2cc(c3O[C@@H]2O[C@H](CO)[C@@H](O)[C@H](O)[C@H]2O[C@H]2C[C@](C)(N)[C@H](O)[C@H](C)O2)Oc2ccc(cc2Cl)[C@H]1O` [vancomycin] here?
Answer: >100 µM

Question: What about the MIC ([6]; Enterococcus, ATCC700221|VRE, read-out: MIC VRE 700221) of the same compound?
Answer: > 100 µM

Question: What about the MBC [7] of the same compound?
Answer: 3 µM (≈ 4.35 µg/mL)

Question: Which MIC [1] does the source give for `Oc1c(Br)c(Cl)c(Br)c2nc3c(Cl)cc(Cl)cc3nc12` [HP 34, 2,4-Dibromo-3,6,8-trichlorophenazin-1-ol] here?
Answer: 0.47 to 1.25 µM (≈ 0.215 to 0.572 µg/mL)

Question: Which MIC [8] does the source give for `CN[C@@H]1[C@H](O[C@H]2[C@H](O[C@H]3[C@H](O)[C@@H](O)[C@H](N=C(N)N)[C@@H](O)[C@@H]3N=C(N)N)O[C@@H](C)[C@]2(O)C=O)O[C@@H](CO)[C@H](O)[C@H]1O` [streptomycin] here?
Answer: 1.32 µM (≈ 0.768 µg/mL)

Question: With `O=C(O)CN(CCN(CC(=O)O)CC(=O)O)CC(=O)O` [EDTA, ethylenediaminetetraacetic acid] as the compound, how does the “upregulation of iron uptake genes” value [5] read?
Answer: do not upregulate
